The text below walks through data of patent US20170266166A1, “Compositions and Methods to Inhibit Estrogen Receptor Beta for the Treatment of Renal Cell Carcinoma” (University of Rochester, priority 2014, published 2017).

Series [1] deals with 786-O cells. Nature of the series: RCC cell growth, MTT assay. In kind it is cell-based, human. To be noted: 10 nM, 786-O (high endogenous ERβ), MTT and colony forming assays. The procedure:
(§1) FIG. 2, comprising FIGS. 2A-2F, depicts the results of experiments comparing ERβ expression in RCC cell lines and estrogen/ERβ effects on RCC cell growth. […] Expression of ERα was not detected in tested RCC cells. ERβ has the highest expression level in 786-O and lowest in A498. Breast cancer cell MCF-7 was used as a positive control. […] The growth rate of 786-O cells (with high endogenous ERβ) is increased in the presence of 17β-estradiol (10 nM) as compared with the control Etoh). […] FIGS. 2D-2E show changes in ERβ expression levels can affect the RCC cell growth. A lentivirus system was used to knock-down ERβ in RCC 786-O cells (by lenti-ERβ-shRNA), or to increase ERβ in A498 cells (by lenti-ERβ cDNA). Cell growth rates were determined by MTT assay.
(§2) RCC cells were seeded in 24-well plates (5000 cells/200 μl medium per well) and cultured for 0, 2, 4 and 6 days. Cells were harvested and cell number was calculated using MTT agent.
(§3) To examine the ERβ roles on RCC cell growth, the lentiviral ERβ cDNA and shRNA were used to change the expression of ERβ in 2 RCC cell lines, A498 (low endogenous ERβ) and 786-O (high endogenous ERβ), respectively. 10 nM […] estradiol (E2) was used to activate ERβ and examine the growth changes using MTT assay and colony forming assays. […] Supportively, knocking-down ERβ by ERβ-siRNA in RCC 786-O cells suppressed cell growth, sh-Luciferase as control (FIG. 2D). […]

Series [2] relates to A498 cells. Put plainly: RCC cell growth, MTT assay. In kind it is cell-based, human. To be noted: 10 nM, A498 (little ERβ). The procedure: as §1, §2, §3
(In general: Tetrazolium assays rely on reduction of a dye to a coloured formazan, in cell work by metabolically active cells.)

Series [3] has as its system 786-O cells. Put plainly: transwell RCC cell migration assay. The conditions noted are these: for cell migration: 10 nM. In kind it is cell-based, human.
For series [4], the system named is A498 cells. Put plainly: transwell RCC cell migration assay. In kind it is cell-based, human.
The subject of the next series is 786-O tumors. Put plainly: anti-estrogen treatment of mice carrying 786-O RCC tumors (IVIS imaging, tumor weight, metastasis). In kind it is in vivo. To be noted: for mice that developed distal metastasis: ip injection every other day, after 4 weeks of treatments, 3 of the 6 DMSO treated mice developed metastasis; for RCC tumor growth and metastasis (IVIS imaging, tumor weights): mouse RCC model, result in words. From the text: Results of IVIS imaging, tumor size, and tumor weights are shown and compared.
The Fe-NTA transformed human renal carcinoma cell lines 7860.sh-ERβ/7860.sh-Luc and A498 hERβ/Vec were directly injected into the renal capsule of nude mice. After anesthesia, the back skin was lifted with a pair of blunt forceps and cut along the midline with a pair of scissors creating an incision approximately an inch in length; the dermis was separated from the underlying body wall on both sides of the incision for bilateral grafting or on one side only (blunt dissection). The animal was placed on its side, and the location of the kidney identified by viewing it through the body wall. A small incision ([…]) was made in the body wall just slightly longer than the long axis of the kidney. The exteriorized kidney was allowed to rest on the body wall. We used a syringe to inject the cells at the cell numbers of 1×10^6, both with matrigel (1:1) under the renal capsule.
ERβ antagonists, PHTPP and ICI, inhibit RCC cell growth and cell invasion Knockdown of ERβ reduced RCC cells growth and Invasion. It was then investigated whether PHTPP (ERβ selective antagonist) and ICI 182,780 (ICI, anti-estrogen) have therapeutic effects to reduce RCC tumor growth and metastasis in vivo. […] Also, both anti-estrogens have been used to treat mouse breast cancer models. The same doses of PHTPP and ICI were applied in mice carrying 786-O tumors DMSO (mock control), PHTPP and ICI were administrated via intraperitoneal (ip) injection every other day. IVIS imaging was applied to monitor tumor growth and distal metastasis. After 4 weeks of treatments, mice were sacrificed for tumor analysis. […] All the mice had developed RCC by the time they were sacrificed. […] In addition to PHTPP and ICI, tamoxifen was also tested on mouse RCC growth.

In a further series the target is ERβ (Homo sapiens, UniProt Q92731). The conditions noted are these: 10 μM, previous reports; cited from earlier work.
Sequence of ERβ (Q92731 whole entry): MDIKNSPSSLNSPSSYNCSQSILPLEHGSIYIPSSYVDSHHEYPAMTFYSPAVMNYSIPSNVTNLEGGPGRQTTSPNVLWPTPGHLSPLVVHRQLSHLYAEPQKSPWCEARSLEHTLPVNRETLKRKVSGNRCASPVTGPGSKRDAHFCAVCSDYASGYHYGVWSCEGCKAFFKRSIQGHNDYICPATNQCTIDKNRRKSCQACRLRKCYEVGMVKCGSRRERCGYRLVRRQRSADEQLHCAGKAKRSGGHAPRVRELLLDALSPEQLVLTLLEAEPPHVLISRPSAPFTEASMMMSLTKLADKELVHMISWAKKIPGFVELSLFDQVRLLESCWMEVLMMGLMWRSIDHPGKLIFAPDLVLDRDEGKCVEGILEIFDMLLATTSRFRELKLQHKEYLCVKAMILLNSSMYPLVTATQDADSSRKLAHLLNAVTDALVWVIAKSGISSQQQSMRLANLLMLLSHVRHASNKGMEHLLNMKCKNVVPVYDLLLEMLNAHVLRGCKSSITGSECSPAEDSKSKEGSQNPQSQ
The test system of series [5] is 786-O cells. Nature of the series: transwell matrigel RCC cell invasion assay. In kind it is cell-based, human. The conditions noted are these: 10 μM. Here is the method: (§4) The migration or invasion capability of RCC cells was determined using the transwell assay. In brief, 1×105 (invasion)/2-5×104 (migration) cells were harvested and seeded with serum-free media into the upper chamber with or without coated Matrigel with (BD Corning). The migrated or invaded cells were fixed by 4% paraformaldehyde and stained with 1% toluidine blue. Cell numbers were counted in five randomly chosen microscopic fields (100×) per membrane. When necessary, cells were treated with 10 μM of TGFβR-1 inhibitor (SB525334 Selleckchem) for 48 hr.
(§5) To further validate the ERβ→TGFβ1→pSMAD3 pathway, an interruption approach was applied by using TGFβR-1 inhibitors (10 μM) for the cell invasion assay in both 786-O and A498 cells (FIG. 5D).

Series [6] has as its system A498 cells. Nature of the series: transwell matrigel RCC cell invasion assay. In kind it is cell-based, human. The conditions noted are these: 10 μM. The procedure: as §4, §5
In another series the test system is pSMAD3. Put plainly: Western blot after TGFβR-1 inhibitor treatment. In kind it is cell-based, human. The conditions noted are these: after treatment of TGFβR-1 inhibitor, FIG. 5D. The procedure: FIG. 5E illustrates the experimental setting for treatment of RCC with TGFβR-1 inhibitor and migration. RCC cells were cultured for 48 hr and then treated with 10 μM TGFβR-1 inhibitor for 6 hr. RCC cells were then trypsinized and seeded in the upper transwell (5×10^4/well) for 24 hr to determine the migration rate. […] Quantification of migrated cells was shown on the right panel.
The expressions of ERs were determined by the Western blot according to the previous study (Hsu et al., Carcinogenesis, 2014, 35:651-61). Rabbit anti-ERβ polyclonal antibody (GTX 110607 GeneTex Corporation), mouse anti-GAPDH monoclonal antibody (Santa Cruz Biotechnology), rabbit anti-TGFB1 polyclonal antibody (Abcam Biotechnology), and mouse anti-SMAD3 monoclonal antibody (Abcam Biotechnology) were all used and all at 1:1,000 dilution in blocking buffer. The immunopositive bands were visualized with an ECL chemiluminescent detection system (Thermo Scientific, Rockford, Ill.), and the images were transferred to the Bio-rad imaging system. The Western analysis was scored positive if the band of interest was present at the expected molecular weight appropriate for each marker protein. All analyses were done in duplicate.
as §5
In general terms: Immunoblotting shows a protein as a band on a membrane.

A further series deals with advanced RCC. To be noted: 1990's clinical trials; cited from earlier work.
The mark [7] stands for this setting: mice carrying 786-O tumors, ip every other day, 4 weeks.

On to `C[C@]12CC[C@@H]3c4ccc(O)cc4CC[C@H]3[C@@H]1CC[C@@H]2O` [E2, 17β-estradiol], for which the cell growth result in the series with 786-O cells [1] is on record as “significantly enhanced the cell growth”; in the series with A498 cells [2], “little E2 stimulating effect”. In addition, the cell migration entry in the series with 786-O cells [3] (786-O sh-Luc control cells) is listed as “could enhance”; with 786-O cells [3] (ERβ knockdown 786-O cells (786-O-shERβ)) it was “little effect”; with A498 cells [4] (10 nM, A498-ERβ cells), “further stimulated the migration”.

`C[C@]12CC[C@@H]3c4ccc(O)cc4C[C@@H](CCCCCCCCC[S+]([O-])CCCC(F)(F)C(F)(F)F)[C@H]3[C@@H]1CC[C@@H]2O` (stereo partly drawn) [ICI 182,780, 7α-[9-(4,4,5,5,5-pentafluoropentylsulfinyl)nonyl]estra-1,3,5(10)-triene-3,17β-diol]: in the series with 786-O tumors (setting [7]), the “body weights versus control” value is recorded as “higher body weights than control”. Besides, the “mice that developed distal metastasis” value in the series on 786-O tumors (mice carrying 786-O tumors) is recorded as “around 17%”. Moreover, the “RCC tumor growth and metastasis (IVIS imaging, tumor weights)” value (from here on “RCC tumor growth and metastasis”) in the series on 786-O tumors (in vivo) was “inhibit the RCC tumor growth and metastasis”. In addition, in the series on 786-O tumors (mouse, in vivo, ip), the “signs of toxicity or adverse treatment side effects” value is listed as “without any signs of toxicity or adverse treatment side effects”. Also, the “estrogen induced ERβ transactivation on EREluciferase reporter activity” value on ERβ was “effectively inhibit”.

Take `Oc1ccc(-c2c(-c3ccccc3)nn3c(C(F)(F)F)cc(C(F)(F)F)nc23)cc1` [PHTPP]: in the series on 786-O tumors (setting [7]), the “body weights versus control” value is “higher body weights than control” and the “signs of toxicity or adverse treatment side effects” value is listed as “without any signs of toxicity or adverse treatment side effects”. Moreover, the “mice that developed distal metastasis” value in the series on 786-O tumors (mice carrying 786-O tumors) is given as “around 17%”. Moreover, the “RCC tumor growth and metastasis” value with 786-O tumors (in vivo) was “inhibit the RCC tumor growth and metastasis”. Besides, the “estrogen induced ERβ transactivation on EREluciferase reporter activity” value at ERβ is reported as “effectively inhibit”.

On to `Cc1cccc(-c2[nH]c(C(C)(C)C)nc2-c2ccc3nccnc3c2)n1` [TGFβR-1 inhibitor], for which the migration ability result is given as “dramatically attenuated” with 786-O cells [3] (10 μM for 48 hr, 786-O sh-Luc (higher ERβ)) and “dramatically attenuated” in the series on A498 cells [4] (10 μM for 48 hr, A498 ERβ (higher ERβ)). In addition, the ERβ-enhanced invasion result with 786-O cells [5] and with A498 cells [6] was “suppression of ERβ-enhanced invasion” throughout. For the same molecule, the “pSMAD3 level by Western blot” value with pSMAD3 is “reduced pSMAD3”.

`CC/C(=C(\c1ccccc1)c1ccc(OCCN(C)C)cc1)c1ccccc1` [tamoxifen]: the “inhibition of tumor size compared to the control group” value with 786-O tumors (RCC in vivo, FIG. 9) was “about 40%”. Besides, the “efficacy to inhibit ERβ activity” value in the series on 786-O tumors (compared to ICI 182,780 and PHTPP, FIG. 9) is recorded as approximately 40%. Moreover, the “RCC tumor growth and metastasis” value with 786-O tumors (in vivo) was “less effective on inhibiting RCC tumor”. Further, the “therapeutic efficacy in advanced RCC” value in the series with advanced RCC was “no significant therapeutic efficacy”.
